{
  "source": "patent US8328898B2",
  "about": "“Environment-friendly carbon-nano synergistic complex fertilizers” (priority 2007, dated 2012)",
  "key": {"[1]": {"conditions": "not told"}, "[2]": {"system": "tomato Jinpengshengguan", "experiment": "Tomato production experiment (Experiment 11)", "type": "in vivo"}, "[3]": {"system": "corn Jiyuan No. 1", "experiment": "Corn field experiment", "type": "in vivo", "conditions": "for Ear weight in the whole area: fresh weight of corn", "excerpt": "Experiments below are preceded with general fertilizing amount, and using the same fertilizing amount and the same fertilizing methods. 2."}, "[4]": {"system": "winter wheat Beinong 9549", "experiment": "Winter wheat field experiment, demonstration park of high quality agricultural products center", "type": "in vivo", "conditions": "for Increase rate: vs control; for Average production per mu: winter wheat Beinong 9549, repeated 3 times", "procedure": "Experiments below are preceded with general fertilizing amount, and using the same fertilizing amount and the same fertilizing methods. […] The Agricultural Science Research Institute of […] District, Beijing • D. Qingyundian Station, the Agricultural Science Research Institute of […] District, Bejing • (2) Experimental protocols and production determination of winter wheat in every experimental site […] Production is determined on Jun."}, "[5]": {"system": "winter wheat Jing411", "experiment": "Winter wheat field experiment, Agricultural Science Research Institute of Daxing District", "type": "in vivo", "conditions": "for Production increasing rate (comparing with control): in vivo; for Average production per mu: winter wheat Jing411", "excerpt": "(§1) Experiments below are preceded with general fertilizing amount, and using the same fertilizing amount and the same fertilizing methods."}, "[6]": {"system": "Ventura celery", "experiment": "Celery production experiment"}, "[7]": {"system": "winter wheat 9428", "experiment": "Winter wheat field experiment, Qingyundian Station", "type": "in vivo", "conditions": "for Production per mu: winter wheat 9428", "excerpt": "as §1"}, "[8]": {"system": "eggplant", "experiment": "Production increasing effects on eggplant (Experiment 9)", "type": "in vivo"}, "[9]": {"conditions": "comparing with ordinary ammonium bicarbonate (ABC)"}, "[10]": {"conditions": "eggplant seedling, 0.0165 kg fertilizer per plant"}},
  "data": [
    {"compound": "NC(N)=O", "note": "[URA, urea]", "values": [
      {"measurement": "Average of N2O—N annual emission flux", "setting": "[1]", "value": 71.92, "unit": "μg N2O/m^3-h"},
      {"measurement": "N2O—N annual emission flux range", "setting": "[1]", "value": "−197-2867 μg N2O/m^3-h"},
      {"measurement": "N2O—N emission flux/nitrogen fertilizer applied", "setting": "[1]", "value": 1.98, "unit": "%"},
      {"measurement": "Production increasing rate", "setting": "[2]; control = 0", "value": 9.80, "unit": "%"},
      {"measurement": "Average area production", "setting": "[2]; during growth of tomato, repeated 6 times", "value": 109.65, "unit": "kg"},
      {"measurement": "Ear weight in the whole area", "setting": "[3]", "value": 38.1, "unit": "kg"},
      {"measurement": "Production increasing rate comparing with urea", "setting": "[3]; in vivo", "value": 0, "unit": "%"},
      {"measurement": "Increase rate", "setting": "[4]", "value": 17.07, "unit": "%"},
      {"measurement": "Average production per mu", "setting": "[4]", "value": 487, "unit": "kg"},
      {"measurement": "Production increasing rate (comparing with control)", "setting": "[5]", "value": 0.28, "unit": "%"},
      {"measurement": "Average production per mu", "setting": "[5]", "value": 328.67, "unit": "kg"},
      {"measurement": "Increasing rate comparing with urea", "setting": "[6]; equal weight as urea", "value": 0, "unit": "%"},
      {"measurement": "Average fresh weight of plants", "setting": "[6]; equal weight of fertilizers", "value": 11.55, "unit": "kg/20 plants"},
      {"measurement": "Fresh weight of celery per mu", "setting": "[6]; in vivo", "value": 7703.85, "unit": "kg"},
      {"measurement": "Increase rate comparing with control", "setting": "[6]; in vivo", "value": 30.2, "unit": "%"},
      {"measurement": "Production increased per mu", "setting": "[6]; over control", "value": 1787.56, "unit": "kg"},
      {"measurement": "Production increasing rate", "setting": "[7]; control = 0", "value": 10.39, "unit": "%"},
      {"measurement": "Production increasing rate", "setting": "[7]; general fertilizer = 0", "value": 5.99, "unit": "%"},
      {"measurement": "Production per mu", "setting": "[7]", "value": 425, "unit": "kg"}
    ]},
    {"compound": "ammonium bicarbonate [ABC]", "values": [
      {"measurement": "Increasing rate of eggplant fruit weight", "setting": "[8]; [9]", "value": 0, "unit": "%"},
      {"measurement": "Increasing rate of leaf number", "setting": "[8]; [9]", "value": 0, "unit": "%"},
      {"measurement": "Increasing rate of plant height", "setting": "[8]; [9]", "value": 0, "unit": "%"},
      {"measurement": "Leaf number 1", "setting": "[8]; eggplant seedling", "value": 15, "unit": "number"},
      {"measurement": "Leaf number 2", "setting": "[8]; eggplant seedling", "value": 33, "unit": "number"},
      {"measurement": "Leaf number 3", "setting": "[8]; eggplant seedling", "value": 4, "unit": "number"},
      {"measurement": "Leaf number 4", "setting": "[8]; eggplant seedling", "value": 26, "unit": "number"},
      {"measurement": "Leaf number 5", "setting": "[8]; eggplant seedling", "value": 28, "unit": "number"},
      {"measurement": "Leaf number 6", "setting": "[8]; eggplant seedling", "value": 15, "unit": "number"},
      {"measurement": "Leaf number 7", "setting": "[8]; eggplant seedling", "value": 28, "unit": "number"},
      {"measurement": "Plant height 1", "setting": "[8]; [10]", "value": 64, "unit": "cm"},
      {"measurement": "Plant height 2", "setting": "[8]; [10]", "value": 64, "unit": "cm"},
      {"measurement": "Plant height 3", "setting": "[8]; [10]", "value": 32, "unit": "cm"},
      {"measurement": "Plant height 4", "setting": "[8]; [10]", "value": 75, "unit": "cm"},
      {"measurement": "Plant height 5", "setting": "[8]; [10]", "value": 65, "unit": "cm"},
      {"measurement": "Plant height 6", "setting": "[8]; [10]", "value": 61, "unit": "cm"},
      {"measurement": "Plant height 7", "setting": "[8]; [10]", "value": 62, "unit": "cm"},
      {"measurement": "Average height", "setting": "[8]; eggplant seedling, 7 plants", "value": 56.72, "unit": "cm"},
      {"measurement": "Average leaf number", "setting": "[8]; eggplant seedling, 7 plants", "value": 21.28, "unit": "number"},
      {"measurement": "Eggplant fruit weight", "setting": "[8]; in vivo", "value": 1.46, "unit": "kg"},
      {"measurement": "Increasing weight of eggplant fruit", "setting": "[8]; over ordinary ammonium bicarbonate (ABC)", "value": 0, "unit": "kg"},
      {"measurement": "Ear weight in the whole area", "setting": "[3]", "value": 39.6, "unit": "kg"},
      {"measurement": "Production increasing rate comparing with ammonium bicarbonate", "setting": "[3]; in vivo", "value": 0, "unit": "%"},
      {"measurement": "Production increasing rate comparing with urea", "setting": "[3]; in vivo", "value": 4.07, "unit": "%"},
      {"measurement": "Increase rate", "setting": "[4]", "value": 15.63, "unit": "%"},
      {"measurement": "Average production per mu", "setting": "[4]", "value": 481, "unit": "kg"},
      {"measurement": "Production increasing rate (comparing with control)", "setting": "[5]", "value": 3.33, "unit": "%"},
      {"measurement": "Average production per mu", "setting": "[5]", "value": 338.69, "unit": "kg"},
      {"measurement": "Production increasing rate", "setting": "[7]; control = 0", "value": 3.12, "unit": "%"},
      {"measurement": "Production per mu", "setting": "[7]", "value": 397, "unit": "kg"}
    ]}
  ]
}
